Test results from patent US7323447B2, “Hepatitis C virus inhibitors” (Bristol-Myers Squibb Company, priority 2005, dated 2008).

Assays:
[1] = system: HCV replicon in HUH-7 cells; experiment: HCV replicon FRET assay; assay type: cell-based, Hepatitis C virus (strain 1b); conditions: Hepatitis C virus, Huh-7, read-out: EC50 Range, HCV replicon cell assay; Table 1
Source text: An HCV replicon whole cell system was established as described by Lohmann V, Korner F, Koch J, Herian U, Theilmann L, Bartenschlager R., Science 285(5424): 110-3 (1999). This system enabled us to evaluate the effects of our HCV Protease compounds on HCV RNA replication. Briefly, using the HCV strain 1b sequence described in the Lohmann paper (Assession number: AJ238799), an HCV cDNA was synthesized by Operon Technologies, Inc. (Alameda, Calif.), and the full-length replicon was then assembled in plasmid pGem9zf(+) (Promega, Madison, Wis.) using standard molecular biology techniques. The replicon consists of (i) the HCV 5′ UTR fused to the first 12 amino acids of the capsid protein, (ii) the neomycin phosphotransferase gene (neo), (iii) the IRES from encephalomyocarditis virus (EMCV), and (iv) HCV NS3 to NS5B genes and the HCV 3′ UTR. Plasmid DNAs were linearized with ScaI and RNA transcripts were synthesized in vitro using the T7 MegaScript transcription kit (Ambion, Austin, Tex.) according to manufacturer's directions. In vitro transcripts of the cDNA were transfected into the human hepatoma cell line, HUH-7. […] Resulting cell lines were characterized for positive and negative strand RNA production and protein production over time.
The HCV replicon FRET assay was developed to monitor the inhibitory effects of compounds described in the disclosure on HCV viral replication. HUH-7 cells, constitutively expressing the HCV replicon, were grown in Dulbecco's Modified Eagle Media (DMEM) (Gibco-BRL) containing 10% Fetal calf serum (FCS) (Sigma) and 1 mg/ml G418 (Gibco-BRL). Cells were seeded the night before (1.5×10^4 cells/well) in 96-well tissue-culture sterile plates. Compound and no compound controls were prepared in DMEM containing 4% FCS, 1:100 Penicillin/Streptomysin (Gibco-BRL), 1:100 L-glutamine and 5% DMSO in the dilution plate (0.5% DMSO final concentration in the assay). Compound/DMSO mixes were added to the cells and incubated for 4 days at 37° C. After 4 days, cells were first assessed for cytotoxicity using alamar Blue (Trek Diagnotstic Systems) for a CC50 reading. The toxicity of compound (CC50) was determined by adding 1/10th volume of alamarBlue to the media incubating the cells. After 4 h, the fluorescence signal from each well was read, with an excitation wavelength at 530 nm and an emission wavelength of 580 nm, using the Cytofluor Series 4000 (Perspective Biosystems). Plates were then rinsed thoroughly with Phosphate-Buffered Saline (PBS) (3 times 150 μl). The cells were lysed with 25 μl of a lysis assay reagent containing an HCV protease substrate (5× cell Luciferase cell culture lysis reagent (Promega #E153A) diluted to 1× with distilled water, NaCl added to 150 mM final, the FRET peptide substrate (as described for the enzyme assay above) diluted to 10 μM final from a 2 mM stock in 100% DMSO. The plate was then placed into the Cytofluor 4000 instrument which had been set to 340 nm excitation/490 nm emissions, automatic mode for 21 cycles and the plate read in a kinetic mode. EC50 determinations were carried out as described for the IC50 determinations.

[2] = biological target: T1, HCV NS3/4A protease complex (BMS strain) (UniProt P27958); experiment: FRET peptide assay to monitor HCV NS3/4A proteolytic activity, BMS strain; assay type: biochemical, Hepatitis C virus (genotype 1a); conditions: read-out: IC50 Range; HCV NS3/4A enzyme assay; Table 1
T1 construct: other: HCV NS3/4A enzyme assay; said of H77 and J4L6S; fused on or other part: Three-lysine solubilising tail at the NS4A C-terminus and a His tag from pET21b (Ni-NTA purification), for the H77 and J4L6S constructs
T1 sequence (P27958 1027-1657, one chain of several): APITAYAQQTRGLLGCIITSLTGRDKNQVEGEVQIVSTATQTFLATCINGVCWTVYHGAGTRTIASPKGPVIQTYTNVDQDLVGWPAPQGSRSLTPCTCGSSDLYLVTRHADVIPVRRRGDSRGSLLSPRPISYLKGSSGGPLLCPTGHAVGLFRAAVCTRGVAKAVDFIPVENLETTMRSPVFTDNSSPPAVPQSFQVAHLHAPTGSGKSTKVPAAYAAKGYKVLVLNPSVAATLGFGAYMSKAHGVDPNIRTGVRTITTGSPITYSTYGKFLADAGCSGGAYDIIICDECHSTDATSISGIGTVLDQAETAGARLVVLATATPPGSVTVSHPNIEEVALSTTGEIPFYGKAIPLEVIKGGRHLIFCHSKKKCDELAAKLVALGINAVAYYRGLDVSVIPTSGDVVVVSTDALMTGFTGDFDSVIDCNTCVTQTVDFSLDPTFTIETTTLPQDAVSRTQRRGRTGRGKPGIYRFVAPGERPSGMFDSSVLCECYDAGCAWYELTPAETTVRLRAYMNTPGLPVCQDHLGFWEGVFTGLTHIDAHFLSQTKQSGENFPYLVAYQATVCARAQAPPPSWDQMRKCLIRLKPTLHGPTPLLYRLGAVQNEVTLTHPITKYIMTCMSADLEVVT
Source text: HCV NS3 protease complexes, derived from the BMS strain, H77 strain or J4L6S strain, were generated, as described below. These purified recombinant proteins were generated for use in a homogeneous assay (see below) to provide an indication of how effective compounds of the present disclosure would be in inhibiting HCV NS3 proteolytic activity.
Serum from an HCV-infected patient was obtained from Dr. T. Wright, San Francisco Hospital. An engineered full-length cDNA (compliment deoxyribonucleic acid) template of the HCV genome (BMS strain) was constructed from DNA fragments obtained by reverse transcription-PCR (RT-PCR) of serum RNA (ribonucleic acid) and using primers selected on the basis of homology between other genotype 1a strains. From the determination of the entire genome sequence, a genotype 1a was assigned to the HCV isolate according to the classification of Simmonds et al. (See P Simmonds, K A Rose, S Graham, S W Chan, F McOmish, B C Dow, E A Follett, P L Yap and […] Marsden, J. Clin. Microbiol., 31(6), 1493-1503 (1993)). […] The infectious clones, H77 (1a genotype) and J4L6S (1b genotype) were obtained from R. Purcell (NIH) and the sequences are published in Genbank (AAB67036, see Yanagi, M., Purcell, R. H., Emerson, S. U. and Bukh, J. Proc. Natl. Acad. Sci. U.S.A. 94(16), 8738-8743 (1997); AF054247, see Yanagi, M., St Claire, M., Shapiro, M., Emerson, S. U., Purcell, R. H. and Bukh, J, Virology 244 (1), 161-172. (1998)).
NS3/4A protease complex-containing fractions were pooled and loaded on a desalting column Superdex-S200 pre-equilibrated with buffer D (25 mM HEPES, pH 7.5, 20% glycerol, 300 mM NaCl, 0.2% Triton X-100, 10 mM βME). Sample was loaded at a flow rate of 1 mL/min. NS3/4A protease complex-containing fractions were pooled and concentrated to approximately 0.5 mg/ml. The purity of the NS3/4A protease complexes, derived from the BMS, H77 and J4L6S strains, were judged to be greater than 90% by SDS-PAGE and mass spectrometry analyses. The enzyme was stored at −80° C., thawed on ice and diluted prior to use in assay buffer.
The purpose of this in vitro assay was to measure the inhibition of HCV NS3 protease complexes, derived from the BMS strain, H77 strain or J4L6S strain, as described above, by compounds of the present disclosure. This assay provides an indication of how effective compounds of the present disclosure would be in inhibiting HCV NS3 proteolytic activity.
In order to monitor HCV NS3/4A protease activity, an NS3/4A peptide substrate was used. The substrate was RET S1 (Resonance Energy Transfer Depsipeptide Substrate; AnaSpec, Inc. cat # 22991) (FRET peptide), described by Taliani et al. in Anal. Biochem. 240(2):60-67 (1996). The sequence of this peptide is loosely based on the NS4A/NS4B natural cleavage site for the HCV NS3 protease except there is an ester linkage rather than an amide bond at the cleavage site. The peptide also contains a fluorescence donor, EDANS, near one end of the peptide and an acceptor, DABCYL, near the other end. The fluorescence of the peptide is quenched by […] resonance energy transfer (RET) between the donor and the acceptor, but as the NS3 protease cleaves the peptide the products are released from RET quenching and the fluorescence of the donor becomes apparent.
The peptide substrate was incubated with one of the three recombinant NS3/4A protease complexes, in the absence or presence of a compound of the present disclosure. The inhibitory effects of a compound were determined by monitoring the formation of fluorescent reaction product in real time using a Cytofluor Series 4000.
Assay buffer: 50 mM HEPES, pH 7.5; 0.15 M NaCl; 0.1% Triton; 15% Glycerol; 10 mM βME. Substrate: 2 μM final concentration (from a 2 mM stock solution in DMSO stored at −20° C.). HCV NS3/4A protease type 1a (1b), 2-3 nM final concentration (from a 5 μM stock solution in 25 mM HEPES, pH 7.5, 20% glycerol, 300 mM NaCl, 0.2% Triton-X100, 10 mM βME). […]

`C=C[C@@H]1C[C@]1(NC(=O)[C@@H]1C[C@@H](Oc2cc(-c3ccccc3)nc3cc(OC)ccc23)CN1C(=O)[C@@H](OC(=O)Nc1ccc(N(C)C)cc1)C(C)(C)C)C(=O)NS(=O)(=O)C1CC1` [Example 5,Compound 7] was tested, and the EC50 [1] was 0.5 to 5 µM and the IC50 [2] was 0.1 to 1 µM.
Compound `C=C[C@@H]1C[C@]1(NC(=O)[C@@H]1C[C@@H](Oc2nccc3ccccc23)CN1C(=O)[C@@H](O)C(C)(C)C)C(=O)NS(=O)(=O)C1CC1` [Example 8] has an EC50 [1] of 0.5 to 5 µM and an IC50 [2] of 0.1 to 1 µM.
In the case of `C=C[C@@H]1C[C@]1(NC(=O)[C@@H]1C[C@@H](Oc2nccc3ccccc23)CN1C(=O)[C@@H](OC(=O)NC1CCCC1)C(C)(C)C)C(=O)NS(=O)(=O)C1CC1` [Example 9], the EC50 [1] is reported as 0.5 to 5 µM and the IC50 [2] is reported as 0.1 to 1 µM.
For `CCC1C[C@]1(NC(=O)[C@@H]1C[C@@H](Oc2cc(-c3ccccc3)nc3cc(OC)ccc23)CN1C(=O)C(O)C(C)(C)C)C(=O)NS(=O)(=O)C1CC1` (stereo partly shown) [Example 10], the EC50 [1] was 0.5 to 5 µM and the IC50 [2] was under 0.1 µM.
`CCC1C[C@]1(NC(=O)[C@@H]1C[C@@H](Oc2cc(-c3ccccc3)nc3cc(OC)ccc23)CN1C(=O)C(O)C(C)C)C(=O)NS(=O)(=O)C1CC1` (stereo partly shown) [Example 11] was tested, and the EC50 [1] was 0.5 to 5 µM and the IC50 [2] was under 0.1 µM.
For `C=C[C@@H]1C[C@]1(NC(=O)[C@@H]1CC(Oc2cc(-c3ccccc3)nc3cc(OC)ccc23)CN1C(=O)[C@@H](O)C(C)(C)C)C(=O)NS(=O)(=O)C1(CC2CC2)CC1` (stereo partly shown) [Example 12], the EC50 [1] was 0.5 to 5 µM and the IC50 [2] was under 0.1 µM.
With `CCC1C[C@]1(NC(=O)[C@@H]1C[C@@H](Oc2cc(-c3ccccc3)nc3cc(OC)ccc23)CN1C(=O)[C@@H](O)C1CCCCC1)C(=O)NS(=O)(=O)C1CC1` (stereo partly shown) [Example 13] the EC50 [1] was 0.5 to 5 µM and the IC50 [2] was under 0.1 µM.
For `C=C[C@@H]1C[C@]1(NC(=O)[C@@H]1C[C@@H](Oc2cc(-c3ccccc3)nc3cc(OC)ccc23)CN1C(=O)C(O)c1ccccc1)C(=O)NS(=O)(=O)C1CC1` (stereo partly shown) [Example 14], the EC50 [1] was over 5 µM and the IC50 [2] was 0.1 to 1 µM.
Work on `CCC1C[C@]1(NC(=O)[C@@H]1C[C@@H](Oc2cc(-c3ccccc3)nc3cc(OC)ccc23)CN1C(=O)C1(O)CC1)C(=O)NS(=O)(=O)C1CC1` (stereo partly shown) [Example 15] yielded an EC50 [1] of 0.5 to 5 µM and an IC50 [2] of 0.1 to 1 µM.
In the case of `CCC1C[C@]1(NC(=O)[C@@H]1C[C@@H](Oc2cc(-c3ccccc3)nc3cc(OC)ccc23)CN1C(=O)C(O)Cc1c[nH]cn1)C(=O)NS(=O)(=O)C1CC1` (stereo partly shown) [Example 16], the EC50 [1] is reported as over 5 µM and the IC50 [2] is reported as 0.1 to 1 µM.
In the case of `CCC1C[C@]1(NC(=O)[C@@H]1C[C@@H](Oc2cc(-c3ccccc3)nc3cc(OC)ccc23)CN1C(=O)[C@@H](O)CC(C)C)C(=O)NS(=O)(=O)C1CC1` (stereo partly shown) [Example 17], the EC50 [1] is reported as 0.5 to 5 µM and the IC50 [2] is reported as 0.1 to 1 µM.
Work on `C=C[C@@H]1C[C@]1(NC(=O)[C@@H]1C[C@@H](Oc2cc(-c3ccccc3)nc3cc(OC)ccc23)CN1C(=O)[C@H](O)c1ccccc1)C(=O)NS(=O)(=O)C1CC1` [Example 18] yielded an EC50 [1] of over 5 µM and an IC50 [2] of 0.1 to 1 µM.
`C=C[C@@H]1C[C@]1(NC(=O)[C@@H]1CC(Oc2nc(-c3ccc(OC(F)(F)F)cc3)cc3cc(OC)ccc23)CN1C(=O)[C@@H](O)C(C)(C)C)C(=O)NS(=O)(=O)C1CC1` (stereo partly shown) [Example 20] was tested, and the EC50 [1] was 0.5 to 5 µM and the IC50 [2] was under 0.1 µM.
In the case of `C=C[C@@H]1CC1(NC(=O)[C@@H]1C[C@@H](Oc2cc(-c3ccccc3)nc3cc(OC)ccc23)CN1C(=O)[C@@H](OC(=O)NC(C)(C)C)C(C)(C)C)C(=O)NS(=O)(=O)C1(CC2CC2)CC1` (stereo partly shown) [Example 22], the EC50 [1] is reported as 0.5 to 5 µM and the IC50 [2] is reported as under 0.1 µM.
`C=C[C@@H]1C[C@]1(NC(=O)[C@@H]1C[C@@H](Oc2nc(-c3ccc(OC(F)(F)F)cc3)cc3cc(OC)ccc23)CN1C(=O)[C@@H](OC(=O)NC(C)(C)C)C(C)(C)C)C(=O)NS(=O)(=O)C1CC1` [Example 23] showed an EC50 [1] of 0.5 to 5 µM and an IC50 [2] of under 0.1 µM.
For `C=C[C@@H]1C[C@]1(NC(=O)[C@@H]1C[C@@H](Oc2nccc3ccccc23)CN1C(=O)[C@@H](OC(=O)NC(C)(C)C)C(C)(C)C)C(=O)NS(=O)(=O)C1CC1` [Example 24], the EC50 [1] was 0.5 to 5 µM and the IC50 [2] was 0.1 to 1 µM.
`C=C[C@@H]1C[C@]1(NC(=O)[C@@H]1C[C@@H](Oc2nccc3ccccc23)CN1C(=O)[C@@H](OC(=O)NCC)C(C)(C)C)C(=O)NS(=O)(=O)C1CC1` [Example 25] gave an EC50 [1] of 0.5 to 5 µM and an IC50 [2] of 0.1 to 1 µM.
With `C=C[C@@H]1C[C@]1(NC(=O)[C@@H]1C[C@@H](Oc2nccc3ccccc23)CN1C(=O)[C@@H](OC(=O)NC(C)C)C(C)(C)C)C(=O)NS(=O)(=O)C1CC1` [Example 26] the EC50 [1] was 0.5 to 5 µM and the IC50 [2] was 0.1 to 1 µM.
Work on `C=C[C@@H]1C[C@]1(NC(=O)[C@@H]1C[C@@H](Oc2nccc3ccccc23)CN1C(=O)[C@@H](OC(=O)NC1CCCCC1)C(C)(C)C)C(=O)NS(=O)(=O)C1CC1` [Example 27] yielded an EC50 [1] of 0.5 to 5 µM and an IC50 [2] of under 0.1 µM.
`C=C[C@@H]1C[C@]1(NC(=O)[C@@H]1C[C@@H](Oc2nccc3ccccc23)CN1C(=O)[C@@H](OC(=O)Nc1ccccc1)C(C)(C)C)C(=O)NS(=O)(=O)C1CC1` [Example 28] was tested, and the EC50 [1] was 0.5 to 5 µM and the IC50 [2] was 0.1 to 1 µM.
